{"source": "the supplement of paper PMC10307832", "experiment_in_all_cases": "relative viability (nuclei count vs DMSO), 5 days (fraction); higher = more cells survive", "key": {"201T": {"system": "201T", "how_it_was_run": "(§1)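 Lung cancer cell lines were seeded in 1536-well plates and dosed by pin tool the next day, with either a single drug or a fixed anchor-drug dose combined with five library-drug doses (not always all listed) spaced in √10 steps. Five days later, one step fixed the cells and stained their nuclei (final 0.05% Triton X-100, 1% formaldehyde, 1 ug/ml Hoechst), and nuclei were counted on 4× images. Relative viability is the nuclei count in treated wells divided by the count in vehicle wells, and each value is the median of duplicate plates.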"}, "BEN": {"system": "BEN", "how_it_was_run": "as §1"}, "CAL-12T": {"system": "CAL-12T", "how_it_was_run": "as §1"}, "COR-L 105": {"system": "COR-L 105", "how_it_was_run": "as §1"}, "H3255": {"system": "H3255", "how_it_was_run": "as §1"}, "HARA": {"system": "HARA", "how_it_was_run": "as §1"}, "HCC-15": {"system": "HCC-15", "how_it_was_run": "as §1"}, "HCC-827": {"system": "HCC-827", "how_it_was_run": "as §1"}, "LC-2-ad": {"system": "LC-2-ad", "how_it_was_run": "as §1"}, "LCLC-103H": {"system": "LCLC-103H", "how_it_was_run": "as §1"}, "LU99A": {"system": "LU99A", "how_it_was_run": "as §1"}, "LXF-289": {"system": "LXF-289", "how_it_was_run": "as §1"}, "NCI-H1437": {"system": "NCI-H1437", "how_it_was_run": "as §1"}, "NCI-H1650": {"system": "NCI-H1650", "how_it_was_run": "as §1"}, "NCI-H1651": {"system": "NCI-H1651", "how_it_was_run": "as §1"}, "NCI-H1792": {"system": "NCI-H1792", "how_it_was_run": "as §1"}, "NCI-H2085": {"system": "NCI-H2085", "how_it_was_run": "as §1"}, "NCI-H2228": {"system": "NCI-H2228", "how_it_was_run": "as §1"}, "NCI-H23": {"system": "NCI-H23", "how_it_was_run": "as §1"}, "NCI-H2405": {"system": "NCI-H2405", "how_it_was_run": "as §1"}, "NCI-H322M": {"system": "NCI-H322M", "how_it_was_run": "as §1"}, "RERF-LC-KJ": {"system": "RERF-LC-KJ", "how_it_was_run": "as §1"}, "UMC-11": {"system": "UMC-11", "how_it_was_run": "as §1"}}, "data": [{"smiles": "CCCCCCCCCCCC1=C(O)C(=O)C=C(O)C1=O", "note": "[Embelin] + CC(C)C[C@H](NC(=O)[C@H](Cc1ccccc1)NC(=O)c1cnccn1)B(O)O [Bortezomib] (partner 0.002 µM)", "values": [{"measurement": "relative viability", "setting": "201T; first compound 0.08 µM", "value": 1.06}, {"measurement": "relative viability", "setting": "201T; first compound 0.8 µM", "value": 1.17}, {"measurement": "relative viability", "setting": "201T; first compound 2.53 µM", "value": 1.09}, {"measurement": "relative viability", "setting": "201T; first compound 8 µM", "value": 1.09}, {"measurement": "relative viability", "setting": "BEN; first compound 0.08 µM", "value": 0.85}, {"measurement": "relative viability", "setting": "BEN; first compound 0.8 µM", "value": 1.04}, {"measurement": "relative viability", "setting": "BEN; first compound 2.53 µM", "value": 0.941}, {"measurement": "relative viability", "setting": "BEN; first compound 8 µM", "value": 0.899}, {"measurement": "relative viability", "setting": "CAL-12T; first compound 0.08 µM", "value": 0.996}, {"measurement": "relative viability", "setting": "CAL-12T; first compound 0.8 µM", "value": 1.27}, {"measurement": "relative viability", "setting": "CAL-12T; first compound 8 µM", "value": 1.04}, {"measurement": "relative viability", "setting": "COR-L 105; first compound 0.08 µM", "value": 0.81}, {"measurement": "relative viability", "setting": "COR-L 105; first compound 0.8 µM", "value": 0.901}, {"measurement": "relative viability", "setting": "COR-L 105; first compound 2.53 µM", "value": 0.765}, {"measurement": "relative viability", "setting": "COR-L 105; first compound 8 µM", "value": 0.961}, {"measurement": "relative viability", "setting": "H3255; first compound 0.08 µM", "value": 0.962}, {"measurement": "relative viability", "setting": "H3255; first compound 0.8 µM", "value": 0.975}, {"measurement": "relative viability", "setting": "H3255; first compound 2.53 µM", "value": 0.702}, {"measurement": "relative viability", "setting": "H3255; first compound 8 µM", "value": 0.889}, {"measurement": "relative viability", "setting": "HARA; first compound 0.08 µM", "value": 1.05}, {"measurement": "relative viability", "setting": "HARA; first compound 0.8 µM", "value": 1.25}, {"measurement": "relative viability", "setting": "HARA; first compound 2.53 µM", "value": 1.13}, {"measurement": "relative viability", "setting": "HARA; first compound 8 µM", "value": 1.26}, {"measurement": "relative viability", "setting": "HCC-15; first compound 0.08 µM", "value": 1.07}, {"measurement": "relative viability", "setting": "HCC-15; first compound 0.8 µM", "value": 1.02}, {"measurement": "relative viability", "setting": "HCC-15; first compound 2.53 µM", "value": 1.18}, {"measurement": "relative viability", "setting": "HCC-15; first compound 8 µM", "value": 1.11}, {"measurement": "relative viability", "setting": "HCC-827; first compound 0.08 µM", "value": 1.12}, {"measurement": "relative viability", "setting": "HCC-827; first compound 0.8 µM", "value": 1.07}, {"measurement": "relative viability", "setting": "HCC-827; first compound 2.53 µM", "value": 1.06}, {"measurement": "relative viability", "setting": "HCC-827; first compound 8 µM", "value": 1.17}, {"measurement": "relative viability", "setting": "LC-2-ad; first compound 0.08 µM", "value": 0.959}, {"measurement": "relative viability", "setting": "LC-2-ad; first compound 0.8 µM", "value": 1.1}, {"measurement": "relative viability", "setting": "LC-2-ad; first compound 2.53 µM", "value": 1.05}, {"measurement": "relative viability", "setting": "LC-2-ad; first compound 8 µM", "value": 1.02}, {"measurement": "relative viability", "setting": "LCLC-103H; first compound 0.08 µM", "value": 1}, {"measurement": "relative viability", "setting": "LCLC-103H; first compound 0.8 µM", "value": 1.14}, {"measurement": "relative viability", "setting": "LCLC-103H; first compound 2.53 µM", "value": 1.07}, {"measurement": "relative viability", "setting": "LCLC-103H; first compound 8 µM", "value": 0.885}, {"measurement": "relative viability", "setting": "LU99A; first compound 0.08 µM", "value": 1.37}, {"measurement": "relative viability", "setting": "LU99A; first compound 0.8 µM", "value": 1.23}, {"measurement": "relative viability", "setting": "LU99A; first compound 2.53 µM", "value": 1.1}, {"measurement": "relative viability", "setting": "LU99A; first compound 8 µM", "value": 1.07}, {"measurement": "relative viability", "setting": "LXF-289; first compound 0.08 µM", "value": 1.01}, {"measurement": "relative viability", "setting": "LXF-289; first compound 0.8 µM", "value": 1}, {"measurement": "relative viability", "setting": "LXF-289; first compound 2.53 µM", "value": 1}, {"measurement": "relative viability", "setting": "LXF-289; first compound 8 µM", "value": 1.05}, {"measurement": "relative viability", "setting": "NCI-H1437; first compound 0.08 µM", "value": 0.602}, {"measurement": "relative viability", "setting": "NCI-H1437; first compound 0.8 µM", "value": 0.528}, {"measurement": "relative viability", "setting": "NCI-H1437; first compound 2.53 µM", "value": 0.618}, {"measurement": "relative viability", "setting": "NCI-H1437; first compound 8 µM", "value": 0.347}, {"measurement": "relative viability", "setting": "NCI-H1650; first compound 0.08 µM", "value": 0.191}, {"measurement": "relative viability", "setting": "NCI-H1650; first compound 0.8 µM", "value": 0.189}, {"measurement": "relative viability", "setting": "NCI-H1650; first compound 2.53 µM", "value": 0.203}, {"measurement": "relative viability", "setting": "NCI-H1650; first compound 8 µM", "value": 0.213}, {"measurement": "relative viability", "setting": "NCI-H1651; first compound 0.08 µM", "value": 0.958}, {"measurement": "relative viability", "setting": "NCI-H1651; first compound 0.8 µM", "value": 0.92}, {"measurement": "relative viability", "setting": "NCI-H1651; first compound 2.53 µM", "value": 1.01}, {"measurement": "relative viability", "setting": "NCI-H1651; first compound 8 µM", "value": 1.02}, {"measurement": "relative viability", "setting": "NCI-H1792; first compound 0.08 µM", "value": 0.93}, {"measurement": "relative viability", "setting": "NCI-H1792; first compound 0.8 µM", "value": 1}, {"measurement": "relative viability", "setting": "NCI-H1792; first compound 2.53 µM", "value": 1.09}, {"measurement": "relative viability", "setting": "NCI-H1792; first compound 8 µM", "value": 1.03}, {"measurement": "relative viability", "setting": "NCI-H2085; first compound 0.08 µM", "value": 0.989}, {"measurement": "relative viability", "setting": "NCI-H2085; first compound 0.8 µM", "value": 1.07}, {"measurement": "relative viability", "setting": "NCI-H2085; first compound 2.53 µM", "value": 1.07}, {"measurement": "relative viability", "setting": "NCI-H2085; first compound 8 µM", "value": 1.03}, {"measurement": "relative viability", "setting": "NCI-H2228; first compound 0.08 µM", "value": 0.939}, {"measurement": "relative viability", "setting": "NCI-H2228; first compound 0.8 µM", "value": 1.03}, {"measurement": "relative viability", "setting": "NCI-H2228; first compound 2.53 µM", "value": 1.29}, {"measurement": "relative viability", "setting": "NCI-H2228; first compound 8 µM", "value": 1.26}, {"measurement": "relative viability", "setting": "NCI-H23; first compound 0.08 µM", "value": 0.971}, {"measurement": "relative viability", "setting": "NCI-H23; first compound 0.8 µM", "value": 1.06}, {"measurement": "relative viability", "setting": "NCI-H23; first compound 2.53 µM", "value": 1.19}, {"measurement": "relative viability", "setting": "NCI-H23; first compound 8 µM", "value": 1.23}, {"measurement": "relative viability", "setting": "NCI-H2405; first compound 0.08 µM", "value": 1.03}, {"measurement": "relative viability", "setting": "NCI-H2405; first compound 0.8 µM", "value": 1.03}, {"measurement": "relative viability", "setting": "NCI-H2405; first compound 2.53 µM", "value": 1.02}, {"measurement": "relative viability", "setting": "NCI-H2405; first compound 8 µM", "value": 1.01}, {"measurement": "relative viability", "setting": "NCI-H322M; first compound 0.08 µM", "value": 1.21}, {"measurement": "relative viability", "setting": "NCI-H322M; first compound 0.8 µM", "value": 1.34}, {"measurement": "relative viability", "setting": "NCI-H322M; first compound 2.53 µM", "value": 1.44}, {"measurement": "relative viability", "setting": "NCI-H322M; first compound 8 µM", "value": 1.29}, {"measurement": "relative viability", "setting": "RERF-LC-KJ; first compound 0.08 µM", "value": 0.984}, {"measurement": "relative viability", "setting": "RERF-LC-KJ; first compound 0.8 µM", "value": 1.31}, {"measurement": "relative viability", "setting": "RERF-LC-KJ; first compound 2.53 µM", "value": 1.3}, {"measurement": "relative viability", "setting": "RERF-LC-KJ; first compound 8 µM", "value": 1.19}, {"measurement": "relative viability", "setting": "UMC-11; first compound 0.08 µM", "value": 0.771}, {"measurement": "relative viability", "setting": "UMC-11; first compound 0.8 µM", "value": 0.966}, {"measurement": "relative viability", "setting": "UMC-11; first compound 2.53 µM", "value": 0.896}, {"measurement": "relative viability", "setting": "UMC-11; first compound 8 µM", "value": 0.547}]}]}
